From patent publication US10143638B2, “Method of treating skin with ingenol mebutate” (LEO Laboratories Limited, priority 2009, dated 2018)

What was measured:
Format in all cases: cell-based, human
dermal fibroblasts = experiment: Hyaluronan pericellular coat formation by dermal fibroblasts (particle exclusion assay)
Description: (§1) A normal adult skin biopsy (6 mm) was obtained (n=1), with informed consent, from an individual attending the Oral Surgery Clinic, School of Dentistry, Wales College of Medicine, Cardiff. Following the application of a local anaesthetic, the dermal biopsy was collected and adult dermal fibroblast cultures established by single cell suspension technique, following enzymic degradation of the specimen. This technique has previously been reliably used to establish viable primary cultures of both oral and dermal fibroblasts in vitro (Cook et al, 2000; Stephens et al, 2001; 2003). Dermal fibroblasts were cultured in Fibroblast-Serum Containing Medium, containing Dulbecco's Modified Eagle's Medium (DMEM), supplemented with L-glutamine (2 mM), antibiotics (100 U/ml) penicillin G sodium, […] streptomycin sulphate and 0.25 μg/ml amphotericin B) and 10% foetal calf serum (all purchased from Invitrogen Ltd., Paisley, U.K.). Dermal fibroblast cultures were maintained at 37° C., in a 5% CO2/95% air atmosphere, with the culture medium being changed every 2-3 days. Dermal fibroblasts were used between) passage 7-17, for all experiments.
Following trypsinization, dermal fibroblasts were seeded in 53 mm bacteriological grade culture dishes (VWR International Ltd., Leicestershire, U.K.), in PEP005-free, Fibroblast-Serum Containing Medium (2 ml), at a density of 7×10^4 cell/dish. Dermal fibroblasts were maintained at 37° C., in a 5% CO2/95% air atmosphere, overnight, prior to washing in PBS (2×2 ml) and maintenance in serum-free, Fibroblast-Serum Containing Medium (2 ml), containing 0 μg/ml, 0.01 μg/ml, 0.1 μg/ml, 1 μg/ml, 10 μg/ml or 100 μg/ml PEP005, +/−TGF-β1 (10 ng/ml) (three culture dishes per PEP005 concentration). A control was also established, consisting of cells in serum-free, Fibroblast-Serum Containing Medium, containing 1% DMSO. The dermal fibroblasts were maintained at 37° C., in a 5% CO2/95% air atmosphere, for 24 h or 72 h. At 24 h and 72 h, the culture dishes were treated with formalized horse blood erythrocytes (TCS Biosciences Ltd., Buckinghamshire, U.K.). The formalized horse blood erythrocytes were washed in PBS, to remove sodium azide (3×20 ml) and centrifuged at 100 g/7 min, at 4° C. The erythrocyte cell pellet obtained was re-suspended in serum-free, Fibroblast-Serum Containing Medium, to a density of 1×10^8 cells/ml. Aliquots of the erythrocyte cell suspension (500 μl) were supplemented to each culture dish and the dishes agitated, prior to maintenance at 37° C., in a 5% CO2/95% air atmosphere, for 15 min. Zones of erythrocyte exclusion were visualized by light microscopy, using a Zeiss Axiovery 135 Inverted Microscope (Carl Zeiss Ltd., Hertfordshire, U.K.), with a Hamamatsun C5985 chilled CCD camera (Hamamatsu Photonics U.K. Ltd., Hertfordshire, U.K.) and using Openlab Software 3.0.8 (Improvision Ltd., Warwickshire, U.K.). Each experiment was performed on three separate occasions.

HAS1 = HAS1 gene expression by dermal fibroblasts (qPCR)
Description: as §1
(§2) Following trypsinization, dermal fibroblasts were seeded in 24-well tissue culture plates, in PEP005-free, Fibroblast-Serum Containing Medium (1 ml), at a cell density of 2.5×10^4 cell/well. Dermal fibroblasts were maintained at 37° C., in a 5% CO2/95% air atmosphere, overnight. At this stage, the culture medium was replaced with Fibroblast-Serum Containing Medium (600 μl), containing 0 μg/ml, 0.01 μg/ml, 0.1 μg/ml, 1 μg/ml, 10 μg/ml or 100 μg/ml PEP005, +/−TGF-β1 (10 ng/ml) (three culture wells per PEP005 concentration). A control was also established, consisting of cells in Fibroblast-Serum Containing Medium, containing 1% DMSO. The dermal fibroblasts were maintained at 37° C., in a 5% CO2/95% air atmosphere, for 24 h or 72 h, prior to washing in PBS (3×1 ml) and Trizol® Reagent (250 μl) added to the cells, for 5 min at room temperature, to induce cell lysis. RNA was extracted by the phenol-chloroform method, as described above, while a cDNA library was generated via random hexamer RT, as described above. RNA (1 μg) was added to 100 µM random hexamer (1 μl), 5×RT Buffer (4 μl), 2.5 mM Deoxynucleoside Triphosphates (dNTPs, 5 μl), 2 μl DTT and Nuclease-Free Water, were added to the reaction (total volume, 20 μl). To denature the RNA, reaction tubes were placed in a GeneAmp PCR System 9700 (Applied Biosystems, Cheshire, U.K.) and heated for 5 min/95° C., prior to cooling to 4° C. Superscript (1 μl) and RNAsin® Ribonuclease Inhibitor (1 μl, Promega, Hampshire, U.K.) were added to each tube, and the tubes subjected to […] at 20° C. for 10 min, 42° C. for 1 h and 95° C. for 5 min, prior to storage at 4° C., until required. As a negative control, RT was also performed, with Nuclease-Free Water replacing the RNA sample.
(§3) qPCR was performed, as described above, with the probe and primers for HAS1, HAS2 and HAS3 (target genes) and the 18s ribosomal RNA (reference gene), designed and supplied by Applied Biosystems. PCR was performed in a final volume of 20 μl/sample, with each reaction mix consisting of cDNA (1 μl), target gene primers and probe (1 μl), Taqman® FAST Universal PCR Master Mix (10 μl, Applied Biosystems), and Nuclease-Free Water (8 μl). PCR amplification was performed, using an initial cycle of 95° C. for 1 s, followed by 40 cycles of 60° C. for 20 s. A cDNA-free control was also included. Again, the comparative CT method was used for relative quantification of gene expression. Each experiment was performed on three separate occasions.

HAS2 = HAS2 gene expression by dermal fibroblasts (qPCR); conditions: non-significant (p>0.05)
Description: as §1, §2, §3

## C/C=C(/C)C(=O)O[C@H]1C(C)=C[C@]23C(=O)[C@@H](C=C(CO)[C@@H](O)[C@]12O)[C@H]1[C@@H](C[C@H]3C)C1(C)C [PEP005, ingenol-3-angelate]
Dermal fibroblasts; PEP005 0.01-10 μg/ml plus TGF-β1 (10 ng/ml), 72 h
  changes in cellular morphology: consistent with the presence of myofibroblasts
Dermal fibroblasts; PEP005 0.01-10 μg/ml plus TGF-β1 (10 ng/ml), 72 h, compared to PEP005-free controls
  hyaluronan pericellular coat formation: even further enhanced
Dermal fibroblasts; PEP005 0.01-10 μg/ml, absence of TGF-β1, 72 h
  morphological changes in fibroblasts: consistent with the presence of myofibroblasts
Dermal fibroblasts; PEP005 0.01-10 μg/ml, absence of TGF-β1, 72 h, compared to PEP005-free controls
  hyaluronan pericellular coat size: increase pericellular coat size
Dermal fibroblasts; PEP005-treated cultures, absence of TGF-β1, 24 h
  hyaluronan pericellular coat formation: little pericellular coat formation
Dermal fibroblasts; PEP005 plus TGF-β1 (10 ng/ml), 24 h, compared to untreated controls and to PEP005 without TGF-β1
  hyaluronan pericellular coat formation: major synergistic effect
HAS1; PEP005 0.01-100 μg/ml plus TGF-β1 (10 ng/ml), 24 h, p<0.05 at 0.01 μg/ml, p<0.01 at 100 μg/ml
  HAS1 expression: general down-regulation
HAS1; PEP005 0.01-100 μg/ml plus TGF-β1 (10 ng/ml), 72 h, non-significant (p>0.05)
  HAS1 expression: general down-regulation
HAS1; PEP005, absence of TGF-β1, 24 h
  HAS1 expression: no obvious effects
HAS1; PEP005, absence of TGF-β1, 72 h
  HAS1 expression: no obvious effects
HAS2; PEP005 0.01-100 μg/ml plus TGF-β1 (10 ng/ml), 72 h
  HAS2 gene expression: general down-regulation
HAS2; PEP005 0.1-10 μg/ml plus TGF-β1 (10 ng/ml), 24 h
  HAS2 expression: up-regulation
HAS2; PEP005 0.1-10 μg/ml, absence of TGF-β1, 24 h
  HAS2 expression: stimulatory effect
HAS2; PEP005 0.1-10 μg/ml, absence of TGF-β1, 72 h
  HAS2 gene expression: major up-regulation
